From patent EP0370499A2, “Use of benzomorphanes in cytoprotection” (BOEHRINGER INGELHEIM KG, priority 1988, dated 1990) come the findings set out here.

The subject of the assay is Hippocampusschnitt. The assay is described as follows: Hippocampal slice: epileptic discharges in magnesium-free medium (stimulation of Schaffer collaterals, extracellular recording at CA1 pyramidal cells). It counts as cell-based. The settings on record: addition of 100 mmol, Abb. 1c. An excerpt:
Als Testsystem für den Nachweis der zytoprotektiven Eigenschaften der Benzomorphanderivate dient der Hippocampusschnitt. Über Mikroelektroden werden die Schäfferkollaterale des sich in einer Perfusionskammer befindenden Hippocampusschnittes stimuliert und die auftretenden Summenpotentiale extrazellulär an den Pyramidenzellen der CAI-Region abgeleitet [H.L. Haas, B. Schaerer und M. Vosmansky, J. Neuroscience Meth. 1 (1979) 323].
Eine typische Stimulation in einem magnesiumhaltigem Medium ist in Abb. 1a dargestellt. - Abb. 1b zeigt multiple epileptische Entladungen in einem magnesiumfreien Medium. Diese Entladungen werden - wie Abb. 1c belegt - beispielsweise durch Zugabe von […] (-)-(1R,5R,9R)-N-(2-Furylmethyl)-5,9-dimethyl-2′- hydroxy-6,7-benzomorphan gehemmt.

Structures are written as SMILES.

With `C[C@H]1[C@H]2Cc3ccc(O)cc3[C@]1(C)CCN2Cc1ccco1` [(-)-(1R,5R,9R)-N-(2-Furylmethyl)-5,9-dimethyl-2′-hydroxy-6,7-benzomorphan], the “multiple epileptische Entladungen” value is on record as “gehemmt”.
